Patent US20250032454A1, “KDM1A INHIBITORS FOR THE TREATMENT OF DISEASE” (Imago Biosciences, Inc., priority 2021, published 2025)
Where two headings read alike, the source gives them in different places.

Assays:
[1] = system: human hematopoietic stem cells (CD34+); test: HbF induction and red cell maturation in CD34+ hematopoietic stem cells differentiated to red cells over 18 days (HbF by HPLC); type: cell-based; conditions: for concentration that inhibits/arrests red cell maturation: co-culture from Day 7, harvest Day 18; for concentration that induces HbF: co-culture from Day 7, harvest Day 18, total HbF by HPLC
Description: In an in vitro assay system, human hematopoietic stem cells (CD34^+) from a single donor are cultured to differentiate into red cells over the course of 18 days using standard culture methods with eythrogenic growth factors. Three test articles were co-cultured beginning on Day 7: the compound described in Example 11SS, a reversible inhibitor of LSD1; 4-(2-(4-aminopiperidin-1-yl)-5-(4-methoxyphenyl)-1-methyl-6-oxo-1,6-dihydropyrimidin-4-yl)-2-fluorobenzonitrile, a potent reversible inhibitor of LSD1; and 2-(((trans)-2-(4-(benzyloxy)phenyl)cyclopropyl)amino)-1-(4-methylpiperazin-1-yl) ethanone dihydrochloride (RN-1), a commercially available potent […] inhibitor of LSD1. Cells were harvested at Day 18 and total HbF was assayed by HPLC, e.g., using a C20 reverse phase column. 4-(2-(4-aminopiperidin-1-yl)-5-(4-methoxyphenyl)-1-methyl-6-oxo-1,6-dihydropyrimidin-4-yl)-2-fluorobenzonitrile and RN-1 both induce HbF at 3 nM but inhibit red cell maturation at 10 nM.

LSD1 = LSD1 (Homo sapiens, UniProt O60341); test: LSD1 fluorescence coupling enzyme assay (HRP/Amplex Red, H3(1-21)K4me2 peptide), 10-dose IC50; type: biochemical; conditions: 10 μM histone H3(1-21)K4me2 peptide substrate, 3-fold serial dilution from 100 μM
Procedure, shortened: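 Fluorescence coupled assay: LSD1 demethylation of 10 μM H3(1-21)K4me2 peptide produces FAD-dependent H2O2, detected via HRP/Amplex Red as resorufin (Ex/Em 535/590 nm). IC50 from 10 doses, 3-fold serial dilution from 100 μM, in duplicate.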

MV4;11 cells = test: Cell Titer-Glo cell growth inhibition in MV4;11 cell line (Day 5 / Day 10); type: cell-based
Procedure, shortened: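 Cells seeded at 3750/well and treated with a 10-point, 4-fold dose curve from 0 to 50 µM; ATP-based luminescence viability read at Day 5. A portion is reseeded into fresh compound and media for 5 more days, read at Day 10; IC50 derived from luminescence.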

[2] = Homo sapiens, MV4-11, 120 h, Day 5, read-out: Cell Titer-Glo IC50 (5 d)
[3] = Homo sapiens, MV4-11, 240 h, Day 10, read-out: Cell Titer-Glo IC50 (10 d)

Compound | IC50 (LSD1) | IC50 (MV4;11 cells; [2]) | IC50 (MV4;11 cells; [3]) | IC50 (MV4;11 cells; Day 5, read-out: Cell Titer-Glo IC50 (5 d)) | IC50 (MV4;11 cells; Day 10, read-out: Cell Titer-Glo IC50 (10 d)) | concentration that inhibits/arrests red cell maturation [1] | concentration that induces HbF [1]
CN1CCN(C(=O)CN[C@@H]2C[C@H]2c2ccc(OCc3ccccc3)cc2)CC1.Cl.Cl (relative stereo) [RN-1, 2-(((trans)-2-(4-(benzyloxy)phenyl)cyclopropyl)amino)-1-(4-methylpiperazin-1-yl) ethanone dihydrochloride, reference compound] | – | – | – | – | – | 10 nM | 3 nM
COc1ccc(-c2c(-c3ccc(C#N)c(F)c3)nc(N3CCC(N)CC3)n(C)c2=O)cc1 [4-(2-(4-aminopiperidin-1-yl)-5-(4-methoxyphenyl)-1-methyl-6-oxo-1,6-dihydropyrimidin-4-yl)-2-fluorobenzonitrile] | – | – | – | – | – | 10 nM | 3 nM
CN1CCN(c2ccc(-n3nc(NC[C@H]4CCC[C@H](N)C4)cc3-c3ccc(C#N)c(F)c3)cc2)CC1 [Example 44, 4-(3-((((1S,3S)-3-aminocyclohexyl)methyl)amino)-1-(4-(4-methylpiperazin-1-yl)phenyl)-1H-pyrazol-5-yl)-2-fluorobenzonitrile] | 500 to 1000 nM | < 500 nM | < 500 nM | – | – | – | –
COc1ccc(-n2nc(NC[C@@H]3CCC[C@H](N)C3)cc2-c2ccc(C#N)c(F)c2)cc1 (single isomer, unassigned) [Example 5b] | < 500 nM | < 500 nM | – | – | – | – | –
Cn1ncc2cc(-n3nc(NC[C@H]4CCC[C@H](N)C4)cc3-c3ccc(C#N)c(F)c3)ccc21 (single isomer, unassigned) [Example 7c] | < 500 nM | < 500 nM | < 500 nM | – | – | – | –
CO[C@H]1CCN(c2ccc(-n3nc(NC[C@H]4CCC[C@H](N)C4)cc3-c3ccc(C#N)c(F)c3)c(F)c2)C1 [Example 20, 4-(3-((((1S,3S)-3-aminocyclohexyl)methyl)amino)-1-(2-fluoro-4-((S)-3-methoxypyrrolidin-1-yl)phenyl)-1H-pyrazol-5-yl)-2-fluorobenzonitrile] | < 500 nM | – | < 500 nM | – | – | – | –
COc1ccc(-n2nc(NC[C@@H]3CC[C@H](N)C3)cc2-c2ccc(C#N)c(F)c2)cc1 (single isomer, unassigned) [Example 4b] | < 500 nM | 500 to 1000 nM | – | – | – | – | –
COc1ccc(-n2nc(NCC3CCCNCC3)cc2-c2ccc(C#N)c(F)c2)cc1 (single isomer, unassigned) [Example 22b, 4-(3-((azepan-4-ylmethyl)amino)-1-(4-methoxyphenyl)-1H-pyrazol-5-yl)-2-fluorobenzonitrile] | < 500 nM | – | – | 500 to 1000 nM | < 500 nM | – | –
N#Cc1ccc(-c2cc(NC[C@@H]3CCC[C@@H](N)C3)nn2-c2ccc3c(cnn3CCO)c2)cc1F [Example 71, 4-(3-((((1R,3R)-3-aminocyclohexyl)methyl)amino)-1-(1-(2-hydroxyethyl)-1H-indazol-5-yl)-1H-pyrazol-5-yl)-2-fluorobenzonitrile] | < 500 nM | < 500 nM | < 500 nM | – | – | – | –
COc1ccc(-n2nc(NCC3CCCC(CN)C3)cc2-c2ccc(C#N)c(F)c2)cc1 (centres unmarked) [Example 28, 4-(3-(((-3-(aminomethyl)cyclohexyl)methyl)amino)-1-(4-methoxyphenyl)-1H-pyrazol-5-yl)-2-fluorobenzonitrile] | 500 to 1000 nM | 1000 to 10000 nM | 1000 to 10000 nM | – | – | – | –
CS(=O)(=O)n1cc(-c2cccc(-n3nc(NC[C@H]4CCC[C@H](N)C4)cc3-c3ccc(C#N)c(F)c3)c2)cn1 [Example 60, 4-(3-((((1S,3S)-3-aminocyclohexyl)methyl)amino)-1-(3-(1-(methylsulfonyl)-1H-pyrazol-4-yl)phenyl)-1H-pyrazol-5-yl)-2-fluorobenzonitrile] | 1000 to 10000 nM | 1000 to 10000 nM | < 500 nM | – | – | – | –

Second part, led by results:

IC50 (LSD1) | IC50 (MV4;11 cells; [2]) | IC50 (MV4;11 cells; [3]) | IC50 (MV4;11 cells; Day 5, read-out: Cell Titer-Glo IC50 (5 d)) | IC50 (MV4;11 cells; Day 10, read-out: Cell Titer-Glo IC50 (10 d)) | Compound | concentration that inhibits/arrests red cell maturation [1] | concentration that induces HbF [1]
< 500 nM | 1000 to 10000 nM | 1000 to 10000 nM | – | – | COc1ccc(-n2nc(NC[C@@H]3CCC[C@@H](CN)C3)cc2-c2ccc(C#N)c(F)c2)cc1 [Example 78, 4-(3-((((1R,3R)-3-(aminomethyl)cyclohexyl)methyl)amino)-1-(4-methoxyphenyl)-1H-pyrazol-5-yl)-2-fluorobenzonitrile] | – | –
< 500 nM | < 500 nM | < 500 nM | – | – | N#Cc1ccc(-c2cc(NC[C@H]3CCC[C@H](N)C3)nn2-c2ccc(-c3cn[nH]c3)cc2)cc1F [Example 52, 4-(1-(4-(1H-pyrazol-4-yl)phenyl)-3-((((1S,3S)-3-aminocyclohexyl)methyl)amino)-1H-pyrazol-5-yl)-2-fluorobenzonitrile] | – | –
< 500 nM | 500 to 1000 nM | < 500 nM | – | – | COc1ccc(-n2nc(NC[C@H]3CCC[C@H](N)C3)cc2-c2ccc(C#N)c(F)c2)cc1 [Example 11SS, 4-(3-((((1S,3S)-3-aminocyclohexyl)methyl)amino)-1-(4-methoxyphenyl)-1H-pyrazol-5-yl)-2-fluorobenzonitrile] | 300 nM | a higher concentration
< 500 nM | 500 to 1000 nM | < 500 nM | – | – | N#Cc1ccc(-c2cc(NC[C@@H]3CCCNCC3)nn2-c2ccc(N3CCN(CCO)CC3)cc2)cc1F (single isomer, unassigned) [Example 27a] | – | –
< 500 nM | < 500 nM | < 500 nM | – | – | Cn1ncc2cc(-n3nc(NC[C@@H]4CCC[C@@H](N)C4)cc3-c3ccc(C#N)c(F)c3)ccc21 (single isomer, unassigned) [Example 7d] | – | –
500 to 1000 nM | 1000 to 10000 nM | – | – | – | Cn1ncc2cc(-n3nc(NC[C@H]4CCC[C@@H](N)C4)cc3-c3ccc(C#N)c(F)c3)ccc21 (single isomer, unassigned) [Example 7a] | – | –
1000 to 10000 nM | – | > 10000 nM | – | – | COc1ccc(-n2nc(NCc3cccc(N)c3)cc2-c2ccc(C#N)c(F)c2)cc1 [Example 40, 4-(3-((3-aminobenzyl)amino)-1-(4-methoxyphenyl)-1H-pyrazol-5-yl)-2-fluorobenzonitrile] | – | –
500 to 1000 nM | 1000 to 10000 nM | < 500 nM | – | – | N#Cc1ccc(-c2cc(NC[C@H]3CCC[C@H](N)C3)nn2-c2cccc(-n3ccnn3)c2)cc1F [Example 62, 4-(1-(3-(1H-1,2,3-triazol-1-yl)phenyl)-3-((((1S,3S)-3-aminocyclohexyl)methyl)amino)-1H-pyrazol-5-yl)-2-fluorobenzonitrile] | – | –
< 500 nM | 500 to 1000 nM | < 500 nM | – | – | N#Cc1ccc(-c2cc(NC[C@H]3CCC[C@H](N)C3)nn2-c2ccc3[nH]ncc3c2)cc1F [Example 65, 4-(3-((((1S,3S)-3-aminocyclohexyl)methyl)amino)-1-(1H-indazol-5-yl)-1H-pyrazol-5-yl)-2-fluorobenzonitrile] | – | –
< 500 nM | < 500 nM | – | – | – | Cn1ncc2cc(-n3nc(NCC4CCCC(N)C4)cc3-c3ccc(C#N)c(F)c3)ccc21 (racemic) [Example 7, rac-4-(3-(((3-aminocyclohexyl)methyl)amino)-1-(1-methyl-1H-indazol-5-yl)-1H-pyrazol-5-yl)-2-fluorobenzonitrile] | – | –
< 500 nM | < 500 nM | < 500 nM | – | – | N#Cc1ccc(-c2cc(NC[C@H]3CCC[C@H](N)C3)nn2-c2ccc3nn(-c4ccccc4)cc3c2)cc1F [Example 16, 4-(3-((((1S,3S)-3-aminocyclohexyl)methyl)amino)-1-(2-phenyl-2H-indazol-5-yl)-1H-pyrazol-5-yl)-2-fluorobenzonitrile] | – | –
500 to 1000 nM | 1000 to 10000 nM | – | – | – | COc1ccc(-n2nc(NC[C@@H]3CCC[C@@H](N)C3)cc2-c2ccc(C#N)c(F)c2)cc1 [Example 11RR, 4-(3-((((1R,3R)-3-aminocyclohexyl)methyl)amino)-1-(4-methoxyphenyl)-1H-pyrazol-5-yl)-2-fluorobenzonitrile] | – | –
< 500 nM | < 500 nM | < 500 nM | – | – | N#Cc1ccc(-c2cc(NC[C@@H]3CCCNCC3)nn2-c2ccc(N3CCCC3)cc2)cc1F (single isomer, unassigned) [Example 24a] | – | –
< 500 nM | 500 to 1000 nM | < 500 nM | – | – | CC(C)n1ncc2cc(-n3nc(NC[C@@H]4CCC[C@@H](N)C4)cc3-c3ccc(C#N)c(F)c3)ccc21 [Example 73, 4-(3-((((1R,3R)-3-aminocyclohexyl)methyl)amino)-1-(1-isopropyl-1H-indazol-5-yl)-1H-pyrazol-5-yl)-2-fluorobenzonitrile] | – | –
1000 to 10000 nM | 1000 to 10000 nM | < 500 nM | – | – | N#Cc1ccc(-c2cc(NC[C@@H]3CCC[C@@H](N)C3)nn2-c2ccc(C(=O)N3CCCC3)cc2)cc1F [Example 64, 4-(3-((((1R,3R)-3-aminocyclohexyl)methyl)amino)-1-(4-(pyrrolidine-1-carbonyl)phenyl)-1H-pyrazol-5-yl)-2-fluorobenzonitrile] | – | –
